In patent US7556938B1, “Nucleic acids encoding potassium channel interactors” (Millennium Pharmaceuticals, Inc., priority 1998, dated 2009):

Target: T1, Kv4.3/KChIP1 (Rattus norvegicus, UniProt Q62897)
T1 sequence (Q62897 1-655): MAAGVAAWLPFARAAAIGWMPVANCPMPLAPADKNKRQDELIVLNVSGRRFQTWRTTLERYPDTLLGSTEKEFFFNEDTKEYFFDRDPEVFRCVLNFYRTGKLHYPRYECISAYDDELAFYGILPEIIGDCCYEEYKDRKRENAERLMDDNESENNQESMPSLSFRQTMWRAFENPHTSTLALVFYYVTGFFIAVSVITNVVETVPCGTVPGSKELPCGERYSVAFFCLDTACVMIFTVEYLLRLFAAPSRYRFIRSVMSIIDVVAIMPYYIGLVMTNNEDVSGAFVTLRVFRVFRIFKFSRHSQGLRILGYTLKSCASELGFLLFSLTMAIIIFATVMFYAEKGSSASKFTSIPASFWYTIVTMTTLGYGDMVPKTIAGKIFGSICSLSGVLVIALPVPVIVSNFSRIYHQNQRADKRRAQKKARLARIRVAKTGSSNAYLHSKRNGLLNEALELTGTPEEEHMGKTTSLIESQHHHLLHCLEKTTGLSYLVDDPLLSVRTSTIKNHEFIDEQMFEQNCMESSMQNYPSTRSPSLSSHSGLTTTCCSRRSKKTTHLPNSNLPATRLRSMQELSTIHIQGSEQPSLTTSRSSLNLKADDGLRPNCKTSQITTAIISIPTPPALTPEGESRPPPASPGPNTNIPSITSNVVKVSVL
T1 sequence (Q8R426 1-216 isoform Q8R426-2 partner): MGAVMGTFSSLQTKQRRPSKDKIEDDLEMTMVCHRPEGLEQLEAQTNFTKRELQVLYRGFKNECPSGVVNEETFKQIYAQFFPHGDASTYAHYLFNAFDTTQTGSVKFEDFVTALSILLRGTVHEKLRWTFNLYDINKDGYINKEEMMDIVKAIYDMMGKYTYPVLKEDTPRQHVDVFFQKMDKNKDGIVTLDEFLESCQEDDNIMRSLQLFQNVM
Experiment: Fatty acid modulation of Kv4.3/KChIP1 current in Xenopus oocytes
Format: cell-based
Experimental: Frogs underwent no more than two surgeries and surgeries were performed by well established techniques. Frogs were anesthetized with ice. Total cRNA (1-10 ng) was injected into stage IV Xenopus oocytes that were harvested the previous day. The Xenopus oocytes were incubated in ND96 containing (in mM) 96 NaCl, 2 KCl, 1.8 CaCl2, 1 MgCl2, 5 HEPES, pH 7.6, plus (Gentamycin 50 μg/ml) at 18° C. Xenopus oocytes were studied 3-7 days after injection. The two-electrode voltage-clamp recordings were performed in ND96 solution using a TURBO TEC 03 Clamp Amplifier (ALA Scientific Instruments, Westbury, N.Y.). Both electrodes were filled with 3 M KCl and had electrode resistances ranging from 0.2-1 MOhm. The current signals were filtered at 1000 Hz before transferred on a PC (Gateway, Calif.) using the PULSE software (HEKA, Germany). In this Example, the hypothesis that […] were the missing auxiliary subunits that accounted for the above kinetic discrepancy was investigated by expressing Kv4 alone or together with […] in both CHO cells and Xenopus oocytes, and measuring their inactivation time constants (using art known techniques as described in, for example, An et al. (2000) Nature 403:553-6; Keros, S. and […]. Neuroscience 17: 3476-87; and Villarroel, A. and […]. Neuroscience 16:2522-32). The effects of different concentrations of arachidonic acid on Kv4/KChIP current was studied in Xenopus oocytes. Because the physiological concentrations of arachidonic acid are often under 10 μM (Needleman, et al., 1986 Annu Rev Biochem 55:69-102; Anderson and Welsh, 1990, Proc Natl Acad Sci USA 87:7334-8; Meves, 1994, Prog Neurobiol 43:175-86), arachidonic acid was tested in the 1-10 μM range. […] Further, the slope of amplitude reduction as a function of increasing concentrations was very similar with or without the presence of […]. […] Villarroel and Schwarz, (1996) J.

[1] = Kv4.3/KChIP1, 10 μM AA, listed as AA

SMILES: CCCCC/C=C\C/C=C\C/C=C\C/C=C\CCCC(=O)O [arachidonic acid]
- Inactivation time constant (ms ± SEM) [1]: 55 ± 4 ms
- Peak amplitude (μA ± SEM) [1]: 21±4 μA
- block of Kv4.3 peak amplitude (Kv4.3/KChIP1, 10 μM fatty acid, vs no-fatty acid control): inhibited significantly
- block of Kv4.3 peak amplitude (Kv4.3/KChIP1, 1-10 μM arachidonic acid): concentration-dependent block
- effect on Kv4.3 inactivation time constant (Kv4.3 co-expressed with KChIP1, 10 μM fatty acid): reduced Kv4.3 inactivation time constant
- effect on inactivation time constant (presence of KChIP1, 1-10 μM arachidonic acid): decreased in a concentration-dependent manner
